Our source for the IC50 values is patent US20240199546A1, “INHIBITORS OF SOLUTE CARRIER FAMILY 6A MEMBER 19 (SLC6A19) AND METHODS OF USE THEREOF” (Maze Therapeutics, Inc., priority 2022, published 2024).

For orientation: IC50 means the concentration at which inhibition is half-maximal.

This assay concerns the target T1, human SLC6A19 and TMEM27 (Homo sapiens, UniProt Q695T7).
T1 construct: expressed in transfected cells
T1 sequence (Q695T7 1-634): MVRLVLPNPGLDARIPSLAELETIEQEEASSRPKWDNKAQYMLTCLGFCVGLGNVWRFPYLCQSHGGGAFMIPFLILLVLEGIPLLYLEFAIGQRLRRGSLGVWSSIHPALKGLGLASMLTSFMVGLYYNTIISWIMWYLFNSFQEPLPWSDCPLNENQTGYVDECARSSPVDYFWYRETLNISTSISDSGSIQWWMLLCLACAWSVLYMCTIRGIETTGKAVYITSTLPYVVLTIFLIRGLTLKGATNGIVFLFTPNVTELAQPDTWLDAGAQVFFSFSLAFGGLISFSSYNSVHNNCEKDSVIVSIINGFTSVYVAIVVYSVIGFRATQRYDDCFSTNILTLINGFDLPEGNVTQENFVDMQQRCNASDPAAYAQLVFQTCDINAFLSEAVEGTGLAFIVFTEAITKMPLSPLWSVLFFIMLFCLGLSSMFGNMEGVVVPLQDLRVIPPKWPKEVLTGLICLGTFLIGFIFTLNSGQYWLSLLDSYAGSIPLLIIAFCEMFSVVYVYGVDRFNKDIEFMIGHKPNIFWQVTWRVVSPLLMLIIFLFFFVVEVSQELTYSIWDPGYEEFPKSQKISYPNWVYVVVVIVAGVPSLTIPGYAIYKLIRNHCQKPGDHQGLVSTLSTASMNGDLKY
T1 sequence (Q9HBJ8 15-222 partner): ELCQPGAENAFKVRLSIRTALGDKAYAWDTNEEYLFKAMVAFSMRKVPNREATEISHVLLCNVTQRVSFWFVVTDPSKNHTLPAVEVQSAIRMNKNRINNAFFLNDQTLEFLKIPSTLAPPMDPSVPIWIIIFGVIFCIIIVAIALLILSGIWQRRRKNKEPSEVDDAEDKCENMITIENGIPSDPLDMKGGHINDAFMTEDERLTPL
The experiment in a line: Radiolabelled (3H) leucine uptake in CHO cells with doxycycline-inducible expression of human SLC6A19 and TMEM27 (Example B-1). The class given is cell-based. The conditions noted are these: CHO cells with doxycycline-inducible expression of human SLC6A19 and TMEM27, read-out: SLC6A19_Radioligand Uptake Assay IC50. The essentials: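 CHO cells were induced with doxycycline for 18 h at 37 °C, washed in HBSS, then exposed to compounds for 1 h: 8-point, 3-fold dilutions in duplicate, 0.5% DMSO final. Uptake measured by scintillation counting after 2 h shaking. Activity normalized with positive control as 0% and DMSO as 100%.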
As for `Cc1cc(COc2cc3[nH]c(CNC(=O)C[C@H]4CCOC4)cc3cc2Cl)on1` [Compound 290, (R)-N-((5-chloro-6-((3-methylisoxazol-5-yl)methoxy)-1H-indol-2-yl)methyl)-2-(tetrahydrofuran-3-yl)acetamide], the IC50 stood at 5290 nM. Consider `CC1(C(=O)NCc2cc3cc(C(F)F)c(OCc4ccon4)cc3[nH]2)CC1` [Compound 646, N-((5-(difluoromethyl)-6-(isoxazol-3-ylmethoxy)-1H-indol-2-yl)methyl)-1-methylcyclopropane-1-carboxamide], for which the IC50 worked out at 539 nM.

As for `Cc1cc(COc2cc3[nH]c(CNC(=O)[C@@H]4CCC[C@H]4O)cc3cc2Cl)on1` (racemic) [Compound 534, (1R,2R)-N-((5-chloro-6-((3-methylisoxazol-5-yl)methoxy)-1H-indol-2-yl)methyl)-2-hydroxycyclopentane-1-carboxamide and (1S,2S)-N-((5-chloro-6-((3-methylisoxazol-5-yl)methoxy)-1H-indol-2-yl)methyl)-2-hydroxycyclopentane-1-carboxamide], the IC50 came out at 3040 nM. Then `Cc1cc(COc2cc3[nH]c(CNC(=O)N4CC(F)(F)C4)cc3cc2Cl)on1` [Compound 370, N-((5-chloro-6-((3-methylisoxazol-5-yl)methoxy)-1H-indol-2-yl)methyl)-3,3-difluoroazetidine-1-carboxamide], with 486 nM; and `CC(=O)NCc1cc2cc(Cl)c(OC[C@H]3CCOC3)cc2[nH]1` [Compound 464, (S)-N-((5-chloro-6-((tetrahydrofuran-3-yl)methoxy)-1H-indol-2-yl)methyl)acetamide], with 1350 nM; and `O=C(CC(F)(F)F)NCc1cc2cc(Cl)c(OCc3cscn3)cc2[nH]1` [Compound 554, N-((5-chloro-6-(thiazol-4-ylmethoxy)-1H-indol-2-yl)methyl)-3,3,3-trifluoropropanamide], with 214 nM. In the case of `Cc1cc(COc2cc3[nH]c(CNC(=O)[C@H]4CCN4C)cc3cc2Cl)on1` [Compound 575, (R)-N-((5-chloro-6-((3-methylisoxazol-5-yl)methoxy)-1H-indol-2-yl)methyl)-1-methylazetidine-2-carboxamide] it was 3050 nM; in that of `CC1(C(=O)NCc2cc3cc(Cl)c(OCc4ncsc4Cl)cc3[nH]2)CC1` [Compound 400, N-((5-chloro-6-((5-chlorothiazol-4-yl)methoxy)-1H-indol-2-yl)methyl)-1-methylcyclopropane-1-carboxamide], 556 nM. In the case of `O=C(NCc1cc2cc(OC(F)(F)F)c(OCc3ccon3)cc2[nH]1)N1CCCC1` [Compound 420, N-((6-(isoxazol-3-ylmethoxy)-5-(trifluoromethoxy)-1H-indol-2-yl)methyl)pyrrolidine-1-carboxamide] it was 355 nM; in that of `O=C(NCc1cc2cc(Cl)c(OCc3ccon3)cc2[nH]1)N1CCOCC1` [Compound 84, N-((5-chloro-6-(isoxazol-3-ylmethoxy)-1H-indol-2-yl)methyl)morpholine-4-carboxamide], 690 nM; in that of `CC(=O)NCc1cc2cc(Cl)c(OCc3ccon3)cc2[nH]1` [Compound 143, N-((5-chloro-6-(isoxazol-3-ylmethoxy)-1H-indol-2-yl)methyl)acetamide], 182 nM.

As to `CC1(C(=O)NCc2cc3cc(OC(F)(F)F)c(CCc4ccon4)cc3[nH]2)CC1` [Compound 510, N-((6-(2-(isoxazol-3-yl)ethyl)-5-(trifluoromethoxy)-1H-indol-2-yl)methyl)-1-methylcyclopropane-1-carboxamide], the IC50 was 385 nM. Then `Cc1cc(COc2cc3[nH]c(CNC(=O)[C@@H]4C[C@@H](F)CN4C)cc3cc2Cl)on1` [Compound 667, (2S,4R)—N-((5-chloro-6-((3-methylisoxazol-5-yl)methoxy)-1H-indol-2-yl)methyl)-4-fluoro-1-methylpyrrolidine-2-carboxamide], with 524 nM; and `CC1(C(=O)NCc2cc3cc(Cl)c(OCCOC4CC4)cc3[nH]2)CC1` [Compound 335, N-((5-chloro-6-(2-cyclopropoxyethoxy)-1H-indol-2-yl)methyl)-1-methylcyclopropane-1-carboxamide], with 126 nM. `[2H]C([2H])(NC(C)=O)c1cc2cc(Cl)c(OCc3cc(C)no3)cc2[nH]1` [Compound 345, N-((5-chloro-6-((3-methylisoxazol-5-yl)methoxy)-1H-indol-2-yl)methyl-d2)acetamide]: the IC50 was determined as 62.7 nM. In the case of `CC1(C(=O)NCc2cc3cc(Cl)c(OCCC4CCCO4)cc3[nH]2)CC1` (racemic) [Compound 397, (S)-N-((5-chloro-6-(2-(tetrahydrofuran-2-yl)ethoxy)-1H-indol-2-yl)methyl)-1-methylcyclopropane-1-carboxamide and (R)-N-((5-chloro-6-(2-(tetrahydrofuran-2-yl)ethoxy)-1H-indol-2-yl)methyl)-1-methylcyclopropane-1-carboxamide], the IC50 turned out to be 492 nM. In the case of `O=C(NCc1cc2ccc(OCc3ccon3)cc2[nH]1)N1CCOCC1` [Compound 199, N-((6-(isoxazol-3-ylmethoxy)-1H-indol-2-yl)methyl)morpholine-4-carboxamide] it was 1370 nM.

With `CSc1cc2cc(CNC(=O)C3(C)CC3)[nH]c2cc1OCc1ccon1` [Compound 391, N-((6-(isoxazol-3-ylmethoxy)-5-(methylthio)-1H-indol-2-yl)methyl)-1-methylcyclopropane-1-carboxamide], the IC50 was found to be 225 nM. In the case of `CC1(C(=O)NCc2cc3ccc(OCC45CC(C4)C5)cc3[nH]2)CC1` [Compound 189, N-((6-(bicyclo[1.1.1]pentan-1-ylmethoxy)-1H-indol-2-yl)methyl)-1-methylcyclopropane-1-carboxamide] it was 9830 nM; in that of `O=C(NCc1cc2cc(C(F)(F)F)c(OCc3ccon3)cc2[nH]1)N1CCC1` [Compound 477, N-((6-(isoxazol-3-ylmethoxy)-5-(trifluoromethyl)-1H-indol-2-yl)methyl)azetidine-1-carboxamide], 383 nM; in that of `C[C@H]1CCCN1C(=O)NCc1cc2cc(F)c(OCc3cscn3)cc2[nH]1` [Compound 385, (S)-N-((5-fluoro-6-(thiazol-4-ylmethoxy)-1H-indol-2-yl)methyl)-2-methylpyrrolidine-1-carboxamide], 549 nM. Then `CC1(C(=O)NCc2cc3cc(Cl)c(COc4ccon4)cc3[nH]2)CC1` [Compound 613, N-((5-chloro-6-((isoxazol-3-yloxy)methyl)-1H-indol-2-yl)methyl)-1-methylcyclopropane-1-carboxamide], with 82.4 nM; and `CC1(C(=O)NCc2cc3cc(Cl)c(OCc4cscn4)cc3[nH]2)COC1` [Compound 277, N-((5-chloro-6-(thiazol-4-ylmethoxy)-1H-indol-2-yl)methyl)-3-methyloxetane-3-carboxamide], with 279 nM; and `Cc1cc(COc2cc3[nH]c(CNC(=O)C(F)(F)F)cc3cc2Cl)on1` [Compound 662, N-((5-chloro-6-((3-methylisoxazol-5-yl)methoxy)-1H-indol-2-yl)methyl)-2,2,2-trifluoroacetamide], with 123 nM. In the case of `CC1CCN(C(=O)NCc2cc3cc(Cl)c(OCc4ccon4)cc3[nH]2)C1` (centres unmarked) [Compound 87, N-((5-chloro-6-(isoxazol-3-ylmethoxy)-1H-indol-2-yl)methyl)-3-methylpyrrolidine-1-carboxamide] it was 365 nM. Regarding `O=C(NCc1cc2cc(Cl)c(OCc3cscn3)cc2[nH]1)C(F)CF` (racemic) [Compound 639, N-((5-chloro-6-(thiazol-4-ylmethoxy)-1H-indol-2-yl)methyl)-2,3-difluoropropanamide], the half-inhibitory concentration (IC50) was 112 nM. In the case of `O=C(NCc1cc2cc(F)c(OCc3cscn3)cc2[nH]1)C1CCO1` (centres unmarked) [Compound 264, N-((5-fluoro-6-(thiazol-4-ylmethoxy)-1H-indol-2-yl)methyl)oxetane-2-carboxamide] it was 243 nM; in that of `CC1(C(=O)NCc2cc3ccc(OCc4ccc5ccoc5c4)cc3[nH]2)CC1` [Compound 192, N-((6-(benzofuran-6-ylmethoxy)-1H-indol-2-yl)methyl)-1-methylcyclopropane-1-carboxamide], 2510 nM; in that of `CC1(C(=O)NCc2cc3cc(Cl)c(OCc4ccon4)c(F)c3[nH]2)CC1` [Compound 16, N-((5-chloro-7-fluoro-6-(isoxazol-3-ylmethoxy)-1H-indol-2-yl)methyl)-1-methylcyclopropane-1-carboxamide], 172 nM.
